Structures are written as SMILES. Some results are limits rather than exact numbers.

In patent publication US9790221B2, “Heteroaryl compounds as IRAK inhibitors and uses thereof” (Merck Patent GmbH, priority 2014, dated 2017) one finds IC50 data, which are given here for 48 compounds.

The target of one assay is IRAK4 (Homo sapiens (Human), UniProt Q9NWZ3). Description: IRAK4 enzymatic assay. It is filed as biochemical. The procedure: IRAK4 is a human purified recombinant enzyme ([…]. IRAK4 hydrolyses ATP, autophosphorylates and phosphorylates a Serine/Threonine generic peptidic substrate (STK: 61ST1BLC from CisBio International based in Bagnols/Cèze FR).
Chain of IRAK4 (Q9NWZ3 whole entry): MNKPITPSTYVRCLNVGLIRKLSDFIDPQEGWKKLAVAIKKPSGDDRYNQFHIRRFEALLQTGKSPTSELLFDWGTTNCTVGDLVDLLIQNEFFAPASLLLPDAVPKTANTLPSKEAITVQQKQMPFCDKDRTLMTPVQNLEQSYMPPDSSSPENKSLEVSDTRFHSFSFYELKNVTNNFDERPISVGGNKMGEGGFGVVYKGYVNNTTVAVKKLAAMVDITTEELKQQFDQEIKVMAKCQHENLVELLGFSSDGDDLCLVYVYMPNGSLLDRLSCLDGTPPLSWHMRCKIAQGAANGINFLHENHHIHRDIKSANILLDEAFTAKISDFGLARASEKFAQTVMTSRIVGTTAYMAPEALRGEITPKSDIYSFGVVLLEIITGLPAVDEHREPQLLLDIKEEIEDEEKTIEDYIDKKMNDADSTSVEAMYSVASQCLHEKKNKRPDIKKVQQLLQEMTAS
Measurement of IRAK-4 inhibition was performed in streptavidin coated 384well FlashPlate (PerkinElmer #SMP410A). His-TEV-IRAK4 (20 ng/well), ATP (2 μM, [^33P]ATP 0.25 µCi/well), STK1-biotin peptide (300 nM) and compounds in DMSO (range of concentrations from 20 µM to 1 nM) or controls (2% DMSO) were incubated for 3 hours at 30° C. in assay buffer: Hepes pH7.0 50 mM, Fatty acid-free BSA 0.1%, Dithiothreitol DTT 2 mM, MgCl2 10 mM, EGTA 0.5 mM, Tween-20 0.01%, MnCl2 5 mM.
Kinase reaction was stopped by addition of EDTA. Supernatant was discarded, plates were washed three times with 150 mM NaCl and radioactivity was then measured in a Microbeta Trilux reader.

Assay [1] addresses IRAK1 (His-TEV-IRAK1 (194-712)) (Homo sapiens (Human), UniProt P51617). Description: IRAK1 enzymatic assay. It is filed as biochemical. The method, then:
IRAK1 is a human purified recombinant enzyme (His-TEV-IRAK1 (194-712)). In this assay, IRAK-1 hydrolyses ATP and autophosphorylates. Measurement of IRAK-1 inhibition was performed in streptavidin coated 384well FlashPlate (PerkinElmer #SMP410A).
His-TEV-IRAK-1 (15 ng/well), ATP (1 μM, [33P]ATP 0.25 μCi/well) and compounds in DMSO (range of concentrations from 20 µM to 1 nM) or controls (2% DMSO) were incubated for 3 hours at 30° C. in assay buffer: Hepes pH7.0 50 mM, Fatty acid-free BSA 0.1%, Dithiothreitol DTT 2 mM, MgCl2 10 mM, EGTA 0.5 mM, Triton-X-100 0.01%. Kinase reaction was stopped by addition of EDTA. Supernatant was discarded, plates were washed three times with 150 mM NaCl and radioactivity was then measured in a Microbeta Trilux reader.

Chain of IRAK1 (His-TEV-IRAK1 (194-712)) (P51617 194-712): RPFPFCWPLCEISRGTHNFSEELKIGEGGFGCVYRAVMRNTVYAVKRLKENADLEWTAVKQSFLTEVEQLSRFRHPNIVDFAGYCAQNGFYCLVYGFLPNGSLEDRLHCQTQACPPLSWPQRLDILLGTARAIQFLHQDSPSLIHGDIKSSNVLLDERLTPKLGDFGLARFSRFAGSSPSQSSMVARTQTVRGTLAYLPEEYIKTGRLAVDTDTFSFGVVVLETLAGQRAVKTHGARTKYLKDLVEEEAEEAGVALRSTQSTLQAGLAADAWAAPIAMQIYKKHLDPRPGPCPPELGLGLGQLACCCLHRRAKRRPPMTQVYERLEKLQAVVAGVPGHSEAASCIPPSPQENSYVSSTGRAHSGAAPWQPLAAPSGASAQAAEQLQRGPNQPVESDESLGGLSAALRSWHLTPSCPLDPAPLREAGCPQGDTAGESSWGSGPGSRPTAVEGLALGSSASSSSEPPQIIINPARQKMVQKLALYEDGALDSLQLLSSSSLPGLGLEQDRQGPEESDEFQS

Usually IC50 stands for the point on the concentration scale where inhibition reaches its midpoint. Turning to `Cn1cc(-c2cccc(-c3ncc(-c4cnn(C)c4)c(NCCN4CCCC4=O)n3)c2)cn1` [Example 39], the concentration for half-maximal inhibition (IC50) against IRAK4 was 1 to 5 µM; in assay [1] it was above 5 µM.

Regarding `Cn1cc(-c2cccc(-c3ncc(-c4cnn(C)c4)c(NCCCN4CCCC4=O)n3)c2)cn1` [Example 40], the IC50 was 1 to 5 µM at IRAK4 and above 5 µM in assay [1].

As to `Cn1cc(-c2cccc(-c3ncc(-c4cnn(C)c4)c(NCCCN4CCOCC4)n3)c2)cn1` [Example 51], the IC50 at IRAK4 is 1 to 5 µM; in assay [1] it was above 5 µM.

Regarding `Cn1cc(-c2cccc(-c3ncc(-c4cnn(C)c4)c(NCCN4CCNC4=O)n3)c2)cn1` [Example 58], the IC50 (against IRAK4; in assay [1]) was 1 to 5 µM throughout.

For the compound `Cn1cc(-c2cccc(-c3ncc(-c4cnn(C)c4)c(NCC4CNCCO4)n3)c2)cn1` (stereo not drawn) [Example 59], the figures for the IC50 (against IRAK4; in assay [1]) were 0.1 to 1 µM and above 5 µM, respectively.

With `Cn1cc(-c2cccc(-c3ncc(-c4cnn(C)c4)c(NC[C@@H]4CCC(=O)N4)n3)c2)cn1` [Example 61], the IC50 against IRAK4 is 0.1 to 1 µM; in assay [1], above 5 µM.

Turning to `Cn1cc(-c2cccc(-c3ncc(-c4cnn(C)c4)c(NC[C@H]4CCNC4)n3)c2)cn1` [Example 64], the 50% inhibitory concentration (IC50) on IRAK4 is 0.1 to 1 µM; in assay [1] it was 1 to 5 µM.

On to `Cn1cc(-c2cccc(-c3ncc(-c4ccn(C)n4)c(NCCCN4CCOC4=O)n3)c2)cn1` [Example 67], for which the values for the IC50 (at IRAK4; in assay [1]) were 0.1 to 1 µM and above 5 µM, respectively.

On to `Cn1cc(-c2cccc(-c3ncc(-c4ccn(C)n4)c(NCCCO)n3)c2)cn1` [Example 68], for which the IC50 fell in the range of 0.1 to 1 µM at IRAK4 and 1 to 5 µM in assay [1].

With `Cn1cc(-c2cccc(-c3ncc(-c4ccn(C)n4)c(NCCN4CCOCC4)n3)c2)cn1` [Example 69], the IC50 against IRAK4 is 0.1 to 1 µM; in assay [1], above 5 µM.

Turning to `Cn1cc(-c2cccc(-c3ncc(-c4ccn(C)n4)c(NCCN4CCCC4=O)n3)c2)cn1` [Example 70], the values for the half-maximal inhibitory concentration (IC50) (at IRAK4; in assay [1]) were 1 to 5 µM and 0.1 to 1 µM, respectively.

Turning to `Cn1cc(-c2cccc(-c3ncc(-c4ccn(C)n4)c(NCC4(C)CCC4)n3)c2)cn1` [Example 71], the IC50 (against IRAK4; in assay [1]) was above 5 µM throughout.

With `Cn1cc(-c2cccc(-c3ncc(-c4ccn(C)n4)c(NCCCN4CCCC4=O)n3)c2)cn1` [Example 72], the results for the IC50 (against IRAK4; in assay [1]) were 1 to 5 µM and above 5 µM, respectively.

In the case of `CC(=O)NCCNc1nc(-c2cccc(-c3cnn(C)c3)c2)ncc1-c1ccn(C)n1` [Example 73], the IC50 (against IRAK4; in assay [1]) was 1 to 5 µM each time.

For `Cn1cc(-c2cccc(-c3ncc(-c4ccn(C)n4)c(NCC4CCNC(=O)C4)n3)c2)cn1` (stereo not drawn) [Example 74], the IC50 against IRAK4 is 0.1 to 1 µM; in assay [1], 1 to 5 µM.

Take `Cn1cc(-c2cccc(-c3ncc(-c4ccn(C)n4)c(NCCCN4CCOCC4)n3)c2)cn1` [Example 75]: the IC50 (on IRAK4; in assay [1]) was above 5 µM in each case.

On to `Cn1cc(-c2cccc(-c3ncc(-c4cnn(C)c4)c(NCCCN4CCOC4=O)n3)c2)cn1` [Example 78], for which the IC50 lay within 0.1 to 1 µM at IRAK4 and 1 to 5 µM in assay [1].

As to `Cn1cc(-c2cccc(-c3ncc(-c4ccn(C)n4)c(N[C@H]4C[C@@H](S(C)(=O)=O)C4)n3)c2)cn1` [Example 79], the 50% inhibitory concentration (IC50) (on IRAK4; in assay [1]) was 0.1 to 1 µM each time.

Regarding `Cn1cc(-c2cccc(-c3ncc(-c4ccn(C)n4)c(NC4CC(F)C4)n3)c2)cn1` (stereo not drawn) [Example 80], the IC50 at IRAK4 is 0.1 to 1 µM; in assay [1], above 5 µM.

For `Cn1cc(-c2cccc(-c3ncc(-c4ccn(C)n4)c(NC4CC(O)C4)n3)c2)cn1` (stereo not drawn) [Example 82], the half-maximal inhibitory concentration (IC50) against IRAK4 is 0.1 to 1 µM; in assay [1], 1 to 5 µM.

As to `Cn1cc(-c2cccc(-c3ncc(-c4cnn(C)c4)c(NCCCCN)n3)c2)cn1` [Example 88], the IC50 on IRAK4 was 0.1 to 1 µM; in assay [1], above 5 µM.

On to `Cn1cc(-c2cccc(-c3ncc(-c4cnn(C)c4)c(NCCCN)n3)c2)cn1` [Example 89], for which the IC50 on IRAK4 was 1 to 5 µM; in assay [1], above 5 µM.

As to `Cn1cc(-c2cccc(-c3ncc(-c4ccn(C)n4)c(NC4CC(F)(F)C4)n3)c2)cn1` [Example 90], the IC50 (at IRAK4; in assay [1]) was above 5 µM throughout.

As to `Cn1cc(-c2cccc(-c3ncc(-c4ccn(C)n4)c(NCCN4CCOC4=O)n3)c2)cn1` [Example 91], the IC50 (against IRAK4; in assay [1]) was above 5 µM each time.

For `Cn1cc(-c2cccc(-c3ncc(-c4cnn(C)c4)c(NC4(CO)COC4)n3)c2)cn1` [Example 92], the IC50 (on IRAK4; in assay [1]) was above 5 µM each time.

For `Cn1cc(-c2cccc(-c3ncc(-c4cnn(C)c4)c(NCCO)n3)c2)cn1` [Example 96], the values for the IC50 (on IRAK4; in assay [1]) were below 0.1 µM and 1 to 5 µM, respectively.

Regarding `Cn1cc(-c2cccc(-c3ncc(-c4ccn(C)n4)c(NC4CC5(CC(N)C5)C4)n3)c2)cn1` (stereo not drawn) [Example 98], the half-inhibitory concentration (IC50) lay in the range of 0.1 to 1 µM against IRAK4 and 1 to 5 µM in assay [1].

On to `Cn1cc(-c2cccc(-c3ncc(-c4ccn(C)n4)c(NCCO)n3)c2)cn1` [Example 100], for which the IC50 on IRAK4 lay within 0.1 to 1 µM; in assay [1], 1 to 5 µM.

Regarding `Cn1cc(-c2cccc(-c3ncc(-c4ccn(C)n4)c(NC4CCC(=O)NC4)n3)c2)cn1` (stereo not drawn) [Example 102], the results for the IC50 (at IRAK4; in assay [1]) were 0.1 to 1 µM and 1 to 5 µM, respectively.

`Cn1cc(-c2cccc(-c3ncc(-c4cnn(C)c4)c(NC4CCC(=O)NC4)n3)c2)cn1` (stereo not drawn) [Example 103]: the IC50 on IRAK4 was below 0.1 µM; in assay [1] it was 1 to 5 µM.

On to `Cn1cc(-c2cccc(-c3ncc(-c4ccn(C)n4)c(NC[C@H]4CCNC4)n3)c2)cn1` [Example 104], for which the IC50 at IRAK4 fell in the range of 0.1 to 1 µM; in assay [1] it was 1 to 5 µM.

In the case of `CN1CCOC(CNc2nc(-c3cccc(-c4cnn(C)c4)c3)ncc2-c2cnn(C)c2)C1` (stereo not drawn) [Example 105], the IC50 on IRAK4 is 0.1 to 1 µM; in assay [1], above 5 µM.

`Cn1cc(-c2cccc(-c3ncc(-c4nnc(C(=O)N5CC[C@@H](O)C5)s4)c(NCC4CNC4)n3)c2)cn1` [Example 106]: the results for the IC50 (at IRAK4; in assay [1]) were below 0.1 µM and above 5 µM, respectively.

With `CC(=O)NCCCNc1nc(-c2cccc(-c3cnn(C)c3)c2)ncc1-c1cnn(C)c1` [Example 109], the IC50 is 0.1 to 1 µM against IRAK4 and above 5 µM in assay [1].

For the compound `Cn1cc(-c2cccc(-c3ncc(-c4cnn(C)c4)c(NCCN4CCC(O)CC4)n3)c2)cn1` [Example 110], the IC50 is 1 to 5 µM at IRAK4 and above 5 µM in assay [1].

Take `Cn1cc(-c2cccc(-c3ncc(-c4ccn(C)n4)c(N[C@H]4CC[C@@H](N)CC4)n3)c2)cn1` [Example 111]: the concentration for half-maximal inhibition (IC50) is below 0.1 µM against IRAK4 and 0.1 to 1 µM in assay [1].

Turning to `Cn1cc(-c2cccc(-c3ncc(-c4ccn(C)n4)c(NCC4(O)CCNCC4(C)C)n3)c2)cn1` (stereo not drawn) [Example 114], the half-maximal inhibitory concentration (IC50) against IRAK4 was 0.1 to 1 µM; in assay [1] it was 1 to 5 µM.

Regarding `Cn1cc(-c2cccc(-c3ncc(-c4ccn(C)n4)c(N[C@H]4CCNC4)n3)c2)cn1` [Example 117], the figures for the 50% inhibitory concentration (IC50) (at IRAK4; in assay [1]) were 0.1 to 1 µM and above 5 µM, respectively.

For the compound `Cn1cc(-c2cccc(-c3ncc(-c4ccn(C)n4)c(NC[C@H](O)CO)n3)c2)cn1` [Example 120], the IC50 (at IRAK4; in assay [1]) was 0.1 to 1 µM in each case.

`Cn1cc(-c2cccc(-c3ncc(-c4cnn(C)c4)c(N[C@H]4CCNC4)n3)c2)cn1` [Example 121]: the half-maximal inhibitory concentration (IC50) was 0.1 to 1 µM on IRAK4 and above 5 µM in assay [1].

In the case of `Cn1cc(-c2cccc(-c3ncc(-c4ccn(C)n4)c(NCC4CCCC(O)C4)n3)c2)cn1` (stereo not drawn) [Example 122], the IC50 against IRAK4 was 0.1 to 1 µM; in assay [1], above 5 µM.

Consider `Cn1cc(-c2cccc(-c3ncc(-c4ccn(C)n4)c(N[C@H]4C[C@@H](N)C4)n3)c2)cn1` [Example 124], for which the half-maximal inhibitory concentration (IC50) against IRAK4 was 0.1 to 1 µM; in assay [1] it was above 5 µM.

For `Cn1cc(-c2cccc(-c3ncc(-c4cnn(C)c4)c(N[C@@H]4CNC[C@@H](F)C4)n3)c2)cn1` [Example 130], the values for the IC50 (at IRAK4; in assay [1]) were 0.1 to 1 µM and 1 to 5 µM, respectively.

Regarding `Cn1cc(-c2cccc(-c3ncc(-c4cnn(C)c4)c(NCCCC(C)(C)O)n3)c2)cn1` [Example 139], the half-maximal inhibitory concentration (IC50) (at IRAK4; in assay [1]) was 0.1 to 1 µM throughout.

Consider `Cn1cc(-c2cccc(-c3ncc(-c4ccn(C)n4)c(NCCCC(C)(C)O)n3)c2)cn1` [Example 140], for which the IC50 against IRAK4 was in the range of 0.1 to 1 µM; in assay [1], 1 to 5 µM.

Turning to `CN(CC1CC(F)(F)C1)c1nc(-c2cccc(-c3cnn(C)c3)c2)ncc1-c1ccn(C)n1` [Example 142], the IC50 is 1 to 5 µM against IRAK4 and above 5 µM in assay [1].

Regarding `Cn1cc(-c2cccc(-c3ncc(-c4ccn(C)n4)c(NCC4CCNC4)n3)c2)cn1` (stereo not drawn) [Example 144], the IC50 is 0.1 to 1 µM against IRAK4 and above 5 µM in assay [1].

As to `Cn1cc(-c2cccc(-c3ncc(-c4cnn(C)c4)c(NCC4CCNC4)n3)c2)cn1` (stereo not drawn) [Example 145], the IC50 on IRAK4 was 0.1 to 1 µM; in assay [1] it was above 5 µM.
